Source: patent US20210353633A1, “CYCLODEXTRIN-BASED FORMULATION OF A BCL-2 INHIBITOR” (LES LABORATOIRES SERVIER, priority 2018, published 2021)
≈ marks a conversion by molar mass, not a printed value. Like-named read-outs stand apart in the source and are kept apart here. Values belong to the compound of their own block, whether it stands above or below them.

Tests used:
[1] = Aqueous solubility of Compound A; format: physicochemical; conditions: aqueous buffer
From the text: In order to enable safe and effective administration of Compound A, and to elicit the required therapeutic effects, Compound A needs to be solubilized at higher concentration than its aqueous solubility.

[2] = Solubility test in various carriers (Example 1); format: physicochemical; conditions: thermodynamic from solid; for solubility at 2 h: read-out: Solubility after 2 h
Experimental: The solubility of ‘Compound A, H2SO4’ was studied in various media, including: • citrate buffer (pH=2; 50 mM), acetate buffer (pH=4; 50 mM) and phosphate buffer (pH=6-7.4; 67.7 mM); • cyclodextrins of the type sulfobutyl ether β-cyclodextrin (SBE-β-cyclodextrin) or hydroxypropyl β-cyclodextrin (HP-β-cyclodextrin); more precisely, the SBE-β-cyclodextrin tested is Dexsolve™ marketed by Cyclolab, while the HP-β-cyclodextrins tested are Cavitron™ W7HP7 and Cavitron™ W7HP5 marketed by Wacker; Kleptose™ HP and Kleptose™ HPB marketed by Roquette; • surfactants such as polysorbate 80 and Kolliphor™ ELP; • the mixture PEG400/ethanol/0.9% NaCl (40/10/50).
5 g of the cyclodextrin studied (Dexsolve™, Cavitron™ W7HP7, Cavitron™ W7HP5, Kleptose™ HP or Kleptose™ HPB) are weighed into a […] graduated flask. Approximately 15 mL of water are added and the whole obtained is subjected to magnetic stirring. The volume is then made up to 25 mL by the addition of water. The whole is placed under magnetic stirring for 10 minutes.
1 g of the surfactant studied is weighed into a 50 mL graduated flask. The volume is then made up to 50 mL by means of 0.9% NaCl solution. The whole is placed under magnetic stirring for 1 hour.
20 mL of PEG 400, 5 mL of ethanol and 25 mL of NaCl are taken. The whole is placed in a 100 mL Erlenmeyer flask and stirred magnetically for 30 minutes.
Approximately 340 mg of ‘Compound A, H2SO4’ are weighed into a 5 mL tube. 3 mL of the medium containing the carrier to be tested are then added. The whole is then placed under magnetic stirring for 2 hours or 24 hours. The suspension or solution so obtained is passed through a 0.2 μm filter (PVDF membrane—Millipore) before being analysed by HPLC. In addition, the presence of degradation products of Compound A was investigated in the samples stored for 72 hours at ambient temperature.

[3] = Physical and chemical stability over time of solutions diluted in G5; format: physicochemical; conditions: 12, 20 and 1000 mg/250 mL of G5
Experimental: Moreover, studies of physical stability over time (24 h, 48 h and 72 h) are carried out on the solutions obtained hereinbefore. In particular, these studies include the particle count of the tested solutions in accordance with the method described in the text of the European Pharmacopoeia 2.9.19. Tests 1.B (i.e. counting of the sub-visible particles by light obscuration).
Studies of chemical stability over time (24 h, 48 h and 72 h) are also put in place in order to ensure the stability of the product under laboratory light (1500 lux) and various heat conditions (ambient temperature, 5° C.). These studies include especially measurements of the amount of active ingredient and degradation products. Pharmaceutical compositions of Compound A solubilised by means of a Cavitron™ W7H5 solution diluted in G5 solution were tested for the following concentrations: 12 mg/250 mL, 20 mg/250 mL and 1000 mg/250 mL of G5 solution.

[4] = PK parameters in RS4;11 grafted female SCID mice; format: in vivo; conditions: for Cmax / concentration at 6 h / AUC / half-life / AUC(0-t): female, SCID, mouse, blood; for Cmax / AUC / half-life / AUC(0-t): iv; for AUCt/Dose / Co / tlast / concentration at 6 h / AUC / half-life / AUC(0-t): one i.v. treatment; for Co / tlast / concentration at 6 h / AUC / half-life: 20% HP-β-cyclodextrin solution; for concentration at 6 h: intravenous, read-out: Clast; for half-life: read-out: t1/2, z (converted); for AUC(0-t): administration to the last point
Experimental: RS4;11 cell line, obtained from ATCC, were subcutaneously injected into female SCID mice, provided by Charles River. When tumors reached the appropriate tumor volume, mice were randomized using Easy stat software. […]
In a 100 mL flask, introduce 20 g of Cavitron™ W7HP5 and add around 75 mL of a solution water/0.9% NaCl (70/30, v/v). Stir for 15 minutes at room temperature. Then, make up the solution to a volume of 100 mL by adding the previous solution water/0.9% NaCl, while maintaining magnetic stirring. Weigh the necessary amount of ‘Compound A, H2SO4’ and dissolve it with the previous 20% w/v Cavitron™ W7H5 solution. Heat the whole at 60° C. under vigorous magnetic stirring until solubilisation of the components of the mixture is complete. Measure the pH of the solution obtained. Adjust the pH to 3 by adding drop by drop, either HCl 0.1N or NaOH 0.1N, depending on the concentration of Compound A. Stir the mixture at least for 1 hour. Filtrate the obtained solution with a 0.2 μm-filter.
A 20% w/v Cavitron™ W7H5 solution containing a dose of 4 mg/mL of Compound A was prepared following this procedure. A second solution containing a dose of 1.5 mg/mL of Compound A was also prepared by diluting further the previous solution with the 20% w/v Cavitron™ W7H5 solution.

[5] = pH of precipitation by addition of NaOH to a HP-β-cyclodextrin solution (Example 9); format: physicochemical; conditions: hydrogen sulfate salt in Cavitron W7H5 solution; 0.5M NaOH added; visual; duplicate
Experimental: The objective of this study is to define the pH of precipitation of Compound A (hydrogen sulfate salt) from HP-β-cyclodextrin solution to better understand the risk of precipitation and select the pH of the drug product.
Weigh 10 g of Cavitron™ W7H5 in a 50 mL flask. Add 26 g of water and then solubilize the Cavitron™ W7H5 under magnetic agitation. Carefully add 1.14 g of Compound A under magnetic agitation and then add 6.5 mL of water. Solubilize Compound A using magnetic agitation at 60° C. Once totally solubilized, cool down the solution at room temperature then rinse the upper edges of the flask with 0.5 mL of water. The total amount of water added is […].
Slowly add 0.5M NaOH solution under continuous agitation (add 100 μL at each addition step) up to a precipitation is visually observed. The experiment was performed in duplicate. The precipitated solid is separated and dried to be analyzed by RMN, XRPD, XRF, and HPLC.

solubility ([1]; aqueous media, free base, across all pHs): < 10 µg/mL
solubility at 24 h ([2]; aqueous with cosolvent or surfactant or cyclodextrin, in the carriers permitting substantial solubilisation (cyclodextrins, PEG400, PEG400/EtOH/0.9% NaCl), read-out: solubilities after 24 hours' stirring): 10000 to 30000 µg/mL (≈ 13.9 to 41.8 mM)
exposure ([4]; 15 mg/kg i.v.): 20463 ng·h/mL
exposure ([4]; 40 mg/kg i.v.): 46509 ng·h/mL
Cmax ([4]; 15 mg/kg i.v.): 14700 ng/mL
Cmax ([4]; 40 mg/kg i.v.): 23300 ng/mL
pH at which drug precipitation was observed [5]: 4.27
SMILES: Cc1c(N(C(=O)c2cc(-c3cc(Cl)ccc3C(=O)N3Cc4ccccc4C[C@H]3CN3CCOCC3)n(C)c2C)c2ccc(O)cc2)cc(C#N)n1C [Compound A, 5-(5-chloro-2-{[(3S)-3-(morpholin-4-ylmethyl)-3,4-dihydroisoquinolin-2(1H)-yl]carbonyl}phenyl)-N-(5-cyano-1,2-dimethyl-1H-pyrrol-3-yl)-N-(4-hydroxyphenyl)-1,2-dimethyl-1H-pyrrole-3-carboxamide]
chemical degradation product ([3]; laboratory light (1500 lux), ambient temperature and 5° C., during 72 h): No significant chemical degradation product was observed
rate of sub-visible particles (light obscuration method) ([3]; up to 72 h): in accordance with the requirement of the European Pharmacopoeia 2.9.19

solubility ([1]; aqueous medium, at pH=2.5): 1400 µg/mL (≈ 1.95 mM)
solubility at 2 h ([2]; 2% Kolliphor ELP solution, aqueous with cosolvent or surfactant or cyclodextrin, carrier: 2% Kolliphor ELP): 2080 µg/mL (≈ 2.9 mM)
solubility at 24 h ([2]; 2% Kolliphor ELP solution, aqueous with cosolvent or surfactant or cyclodextrin, carrier: 2% Kolliphor ELP, read-out: Solubility after 24 h): 1740 µg/mL (≈ 2.43 mM)
solubility at 2 h ([2]; 2% Polysorbate 80 solution, aqueous with cosolvent or surfactant or cyclodextrin, carrier: 2% Polysorbate 80): 2300 µg/mL (≈ 3.21 mM)
solubility at 24 h ([2]; 2% Polysorbate 80 solution, aqueous with cosolvent or surfactant or cyclodextrin, carrier: 2% Polysorbate 80, read-out: Solubility after 24 h): 1960 µg/mL (≈ 2.73 mM)
solubility at 2 h ([2]; aqueous buffer, carrier: Acetate buffer (pH=4; 50 mM)): 200 µg/mL (≈ 0.279 mM)
solubility at 24 h ([2]; aqueous buffer, carrier: Acetate buffer (pH=4; 50 mM), read-out: Solubility after 24 h): 180 µg/mL (≈ 0.251 mM)
solubility at 2 h ([2]; aqueous buffer, carrier: Citrate buffer (pH=2; 50 mM)): 240 µg/mL (≈ 0.335 mM)
solubility at 24 h ([2]; aqueous buffer, carrier: Citrate buffer (pH=2; 50 mM), read-out: Solubility after 24 h): 250 µg/mL (≈ 0.349 mM)
solubility at 2 h ([2]; aqueous buffer, carrier: Phosphate buffer (pH=6-7.4; 67.7 mM)): 210 µg/mL (≈ 0.293 mM)
solubility at 24 h ([2]; aqueous buffer, carrier: Phosphate buffer (pH=6-7.4; 67.7 mM), read-out: Solubility after 24 h): 520 µg/mL (≈ 0.725 mM)
solubility at 2 h ([2]; aqueous with cosolvent or surfactant or cyclodextrin, carrier: Cavitron W7HP5, 20% by weight cyclodextrin solution): 25200 µg/mL (≈ 35.1 mM)
solubility at 24 h ([2]; aqueous with cosolvent or surfactant or cyclodextrin, carrier: Cavitron W7HP5, 20% by weight cyclodextrin solution, read-out: Solubility after 24 h): 30200 µg/mL (≈ 42.1 mM)
solubility at 2 h ([2]; aqueous with cosolvent or surfactant or cyclodextrin, carrier: Cavitron W7HP7, 20% by weight cyclodextrin solution): 17900 µg/mL (≈ 24.9 mM)
solubility at 24 h ([2]; aqueous with cosolvent or surfactant or cyclodextrin, carrier: Cavitron W7HP7, 20% by weight cyclodextrin solution, read-out: Solubility after 24 h): 21200 µg/mL (≈ 29.5 mM)
solubility at 2 h ([2]; aqueous with cosolvent or surfactant or cyclodextrin, carrier: Dexsolve, 20% by weight cyclodextrin solution): 23400 µg/mL (≈ 32.7 mM)
solubility at 24 h ([2]; aqueous with cosolvent or surfactant or cyclodextrin, carrier: Dexsolve, 20% by weight cyclodextrin solution, read-out: Solubility after 24 h): 23200 µg/mL (≈ 32.3 mM)
solubility at 24 h ([2]; aqueous with cosolvent or surfactant or cyclodextrin, carrier: Kleptose HP, 20% by weight cyclodextrin solution, read-out: Solubility after 24 h): 25000 to 26000 µg/mL (≈ 34.9 to 36.2 mM)
solubility at 24 h ([2]; aqueous with cosolvent or surfactant or cyclodextrin, carrier: Kleptose HPB, 20% by weight cyclodextrin solution, read-out: Solubility after 24 h): 30000 to 31000 µg/mL (≈ 41.8 to 43.2 mM)
solubility at 2 h ([2]; aqueous with cosolvent or surfactant or cyclodextrin, carrier: PEG400/EtOH/0.9% NaCl (40/10/50)): 10300 µg/mL (≈ 14.4 mM)
solubility at 24 h ([2]; aqueous with cosolvent or surfactant or cyclodextrin, carrier: PEG400/EtOH/0.9% NaCl (40/10/50), read-out: Solubility after 24 h): 10800 µg/mL (≈ 15 mM)
solubility at 2 h ([2]; organic solvent or mixture, carrier: Absolute ethanol): 1060 µg/mL (≈ 1.48 mM)
solubility at 24 h ([2]; organic solvent or mixture, carrier: Absolute ethanol, read-out: Solubility after 24 h): 1130 µg/mL (≈ 1.58 mM)
solubility at 2 h ([2]; organic solvent or mixture, carrier: PEG 400): 11700 µg/mL (≈ 16.3 mM)
solubility at 24 h ([2]; organic solvent or mixture, carrier: PEG 400, read-out: Solubility after 24 h): 11200 µg/mL (≈ 15.6 mM)
solubility at 2 h ([2]; carrier: Water): 2870 µg/mL (≈ 4 mM)
solubility at 24 h ([2]; carrier: Water, read-out: Solubility after 24 h): 1560 µg/mL (≈ 2.17 mM)
AUCt/Dose ([4]; 15 mg/kg): 1360 ng·h/mL per mg/kg
Co ([4]; 15 mg/kg): 14692 ng/mL
tlast ([4]; 15 mg/kg): 6 h
AUCt/Dose ([4]; 40 mg/kg): 1140 ng·h/mL per mg/kg
Co ([4]; 40 mg/kg): 23290 ng/mL
tlast ([4]; 40 mg/kg): 6 h
concentration at 6 h ([4]; 15 mg/kg): 58.4 ng/mL
concentration at 6 h ([4]; 40 mg/kg): 457 ng/mL
AUC ([4]; 15 mg/kg): 20500 ng·h/mL
half-life ([4]; 15 mg/kg): 45.6 min
AUC ([4]; 40 mg/kg): 46500 ng·h/mL
half-life ([4]; 40 mg/kg): 66 min
AUC(0-t) ([4]; 15 mg/kg): 20400 ng·h/mL
AUC(0-t) ([4]; 40 mg/kg): 45800 ng·h/mL
SMILES: Cc1c(N(C(=O)c2cc(-c3cc(Cl)ccc3C(=O)N3Cc4ccccc4C[C@H]3CN3CCOCC3)n(C)c2C)c2ccc(O)cc2)cc(C#N)n1C [Compound A, H2SO4, 5-(5-chloro-2-{[(3S)-3-(morpholin-4-ylmethyl)-3,4-dihydroisoquinolin-2(1H)-yl]carbonyl}phenyl)-N-(5-cyano-1,2-dimethyl-1H-pyrrol-3-yl)-N-(4-hydroxyphenyl)-1,2-dimethyl-1H-pyrrole-3-carboxamide]
